The values below are quoted from earlier work in publication PMC10006169, “A phase I trial of LXS196, a protein kinase C (PKC) inhibitor, for metastatic uveal melanoma” (British Journal of Cancer, 2023).

One data set deals with patients with MUM. Also on record: method as in PMID 32029634. The note with it: cited from earlier work.
The next data set deals with 92.1 human UM xenograft. Also on record: method as in PMID 27507190. The note with it: doses below MTD; cited from earlier work.
The subject of data set [1] is UM cell lines containing mutant GNAQ or GNA11. As to conditions: cited from earlier work.
Data set [2] has as its system HLA-A*02:01-positive patients with first-line MUM. Also on record: method as in PMID 34551229. The note with it: cited from earlier work.

In the case of `CN1CCN(c2nc(C3=C(c4c[nH]c5ccccc45)C(=O)NC3=O)c3ccccc3n2)CC1` [AEB071, 3-(1H-Indol-3-yl)-4-[2-(4-methylpiperazin-1-yl)quinazolin-4-yl]pyrrole-2,5-dione], the “Estimated median PFS” value with patients with MUM (95% CI: 2.5–3.6) was 3.5 months. Moreover, the ORR in the data set on patients with MUM (across all doses) was 3%. In the data set with patients with MUM, the Dose-limiting toxicities entry is reported as “increased frequency of dose-limiting gastrointestinal (GI) toxicities associated with increasing dose”, the “Median duration of SD” value was 3.75 months and the “Stable disease (SD) as best response” value is on record as 50%. For the same molecule, in the data set on 92.1 human UM xenograft, the “Tumour effect as single agent” value is “stasis”. In addition, the “Sensitivity of UM cell lines carrying Gα subunit mutations” value in data set [1] is “selective sensitivity”.

Consider “tebentafusp: bispecific fusion protein (Immunocore) designed to redirect T cells to gp100-positive cells”, for which, in data set [2] (95% CI: 0.37–0.71), the “Hazard ratio (OS vs Investigator's choice)” value is given as 0.51. Besides, the “1-year OS rate” value in data set [2] (control group 59%) is 73%.
